The results in this text go back to PubChem BioAssay AID1259407 (Chemical Carcinogenesis Research Information System (CCRIS), 2018).

Calls of active or inactive are those of the source. How the calls were made is not given here.

This series deals with CCRIS mutagenicity, Ames/micronucleus/aberration tests. Briefly: CCRIS mutagenicity studies.
The mark [1] stands for this setting: Test System: AMES SALMONELLA TYPHIMURIUM, Strain/Indicator: TA98, Metabolic Activation: NONE, Method: PREINCUBATION
Where [2] appears, read: Test System: AMES SALMONELLA TYPHIMURIUM, Strain/Indicator: TA100, Metabolic Activation: NONE, Method: PREINCUBATION
The mark [3] stands for this setting: Test System: AMES SALMONELLA TYPHIMURIUM, Strain/Indicator: TA1535, Metabolic Activation: NONE, Method: PREINCUBATION
[4] abbreviates: Test System: AMES SALMONELLA TYPHIMURIUM, Strain/Indicator: TA1537, Metabolic Activation: NONE, Method: PREINCUBATION

On to `NC=O`, for which the mutagenic call was “inactive; negative” (End Point: In vivo micronucleus, Test System: Peripheral blood erythrocytes, Species: Mouse, Strain/Sex: B6C3F1/ Male and Female, Route: Oral); “inactive; negative” (Test System: AMES SALMONELLA TYPHIMURIUM, Strain/Indicator: TA98, Metabolic Activation: HAMSTER, LIVER, S-9, AROCLOR 1254 (10%), Method: PREINCUBATION); “inactive; negative” under setting [1]; “inactive; negative” (Test System: AMES SALMONELLA TYPHIMURIUM, Strain/Indicator: TA98, Metabolic Activation: RAT LIVER S-9, PHENOBARBITAL AND BETA-NAPHTHOFLAVONE, Method: PREINCUBATION); “inactive; negative” (Test System: AMES SALMONELLA TYPHIMURIUM, Strain/Indicator: TA98, Metabolic Activation: RAT, LIVER, S-9, AROCLOR 1254 (10%), Method: PREINCUBATION); “inactive; negative” (Test System: AMES SALMONELLA TYPHIMURIUM, Strain/Indicator: TA100, Metabolic Activation: HAMSTER, LIVER, S-9, AROCLOR 1254 (10%), Method: PREINCUBATION). The mutagenic call under setting [2] is “inactive; negative”; the mutagenic call (Test System: AMES SALMONELLA TYPHIMURIUM, Strain/Indicator: TA100, Metabolic Activation: RAT LIVER S-9, PHENOBARBITAL AND BETA-NAPHTHOFLAVONE, Method: PREINCUBATION) was “inactive; negative”; the mutagenic call (Test System: AMES SALMONELLA TYPHIMURIUM, Strain/Indicator: TA100, Metabolic Activation: RAT, LIVER, S-9, AROCLOR 1254 (10%), Method: PREINCUBATION) was “inactive; negative”; the mutagenic call (Test System: AMES SALMONELLA TYPHIMURIUM, Strain/Indicator: TA1535, Metabolic Activation: HAMSTER, LIVER, S-9, AROCLOR 1254 (10%), Method: PREINCUBATION) is “inactive; negative”; the mutagenic call under setting [3] is “inactive; negative”; the mutagenic call (Test System: AMES SALMONELLA TYPHIMURIUM, Strain/Indicator: TA1535, Metabolic Activation: RAT LIVER S-9, PHENOBARBITAL AND BETA-NAPHTHOFLAVONE, Method: PREINCUBATION) is “inactive; negative”. In addition, the mutagenic call (Test System: AMES SALMONELLA TYPHIMURIUM, Strain/Indicator: TA1535, Metabolic Activation: RAT, LIVER, S-9, AROCLOR 1254 (10%), Method: PREINCUBATION) was “inactive; negative”; the mutagenic call (Test System: AMES SALMONELLA TYPHIMURIUM, Strain/Indicator: TA1537, Metabolic Activation: HAMSTER, LIVER, S-9, AROCLOR 1254 (10%), Method: PREINCUBATION) is “inactive; negative”; the mutagenic call under setting [4] was “inactive; negative”; the mutagenic call (Test System: AMES SALMONELLA TYPHIMURIUM, Strain/Indicator: TA1537, Metabolic Activation: RAT LIVER S-9, PHENOBARBITAL AND BETA-NAPHTHOFLAVONE, Method: PREINCUBATION) was “inactive; negative”; the mutagenic call (Test System: AMES SALMONELLA TYPHIMURIUM, Strain/Indicator: TA1537, Metabolic Activation: RAT, LIVER, S-9, AROCLOR 1254 (10%), Method: PREINCUBATION) is “inactive; negative”; the mutagenic call (Test System: Ames Salmonella typhimurium, Strain/Indicator: TA98, Metabolic Activation: None, Method: Preincubation) was “inactive; negative”. Also, the mutagenic call is, setting by setting: (Test System: Ames Salmonella typhimurium, Strain/Indicator: TA98, Metabolic Activation: Rat, Liver, S-9, Aroclor 1254 (10%), Method: Preincubation) “inactive; negative”; (Test System: Ames Salmonella typhimurium, Strain/Indicator: TA100, Metabolic Activation: None, Method: Preincubation) “inactive; negative”; (Test System: Ames Salmonella typhimurium, Strain/Indicator: TA100, Metabolic Activation: Rat, Liver, S-9, Aroclor 1254 (10%), Method: Preincubation) “inactive; negative”; (Test System: E. coli, Strain/Indicator: WP urvA pKM101, Metabolic Activation: None, Method: Preincubation) “inactive; negative”; (Test System: E. coli, Strain/Indicator: WP urvA pKM101, Metabolic Activation: Rat, Liver, S-9, Aroclor 1254 (10%), Method: Preincubation) “inactive; negative”; (Test System: E.COLI, Strain/Indicator: WP2UVRA/PKM101, Metabolic Activation: NONE, Method: PREINCUBATION) “inactive; negative”. Also, the mutagenic call (Test System: E.COLI, Strain/Indicator: WP2UVRA/PKM101, Metabolic Activation: RAT LIVER S-9, PHENOBARBITAL AND BETA-NAPHTHOFLAVONE, Method: PREINCUBATION) was “inactive; negative”.
Take `COc1nncc2cnccc12`: the mutagenic call reads like this: under setting [1], “inactive; negative”; (Test System: AMES SALMONELLA TYPHIMURIUM, Strain/Indicator: TA98, Metabolic Activation: RAT, LIVER, S-9, PCB, Method: PREINCUBATION) “inactive; negative”; under setting [2], “inactive; negative”; (Test System: AMES SALMONELLA TYPHIMURIUM, Strain/Indicator: TA100, Metabolic Activation: RAT, LIVER, S-9, PCB, Method: PREINCUBATION) “inactive; negative”.
In the case of `CC#N`, the mutagenic call (End Point: IN VITRO CHROMOSOMAL ABERRATIONS, Test System: CHINESE HAMSTER OVARY CELLS, Metabolic Activation: NONE) is “inactive; negative”; the mutagenic call (End Point: IN VITRO CHROMOSOMAL ABERRATIONS, Test System: CHINESE HAMSTER OVARY CELLS, Metabolic Activation: RAT, LIVER, S-9, AROCLOR 1254) is “active; positive; statistically significant increase, but not dose-related”; the mutagenic call (Test System: AMES SALMONELLA TYPHIMURIUM, Strain/Indicator: TA98, Metabolic Activation: HAMSTER, LIVER, S-9, AROCLOR 1254 (10 OR 30%), Method: PREINCUBATION) was “inactive; negative”; the mutagenic call under setting [1] was “inactive; negative”; the mutagenic call (Test System: AMES SALMONELLA TYPHIMURIUM, Strain/Indicator: TA98, Metabolic Activation: RAT, LIVER, S-9, ACETONITRILE (AUTOINDUCTION), Method: PREINCUBATION) was “inactive; negative”; the mutagenic call (Test System: AMES SALMONELLA TYPHIMURIUM, Strain/Indicator: TA98, Metabolic Activation: RAT, LIVER, S-9, AROCLOR 1254 (10 OR 30%), Method: PREINCUBATION) is “inactive; negative”. In addition, the mutagenic call is, setting by setting: (Test System: AMES SALMONELLA TYPHIMURIUM, Strain/Indicator: TA98, Metabolic Activation: RAT, LIVER, S-9, PHENOBARBITONE, Method: PREINCUBATION) “inactive; negative”; (Test System: AMES SALMONELLA TYPHIMURIUM, Strain/Indicator: TA100, Metabolic Activation: HAMSTER, LIVER, S-9, AROCLOR 1254 (10 OR 30%), Method: PREINCUBATION) “inactive; negative”; under setting [2], “inactive; negative”; (Test System: AMES SALMONELLA TYPHIMURIUM, Strain/Indicator: TA100, Metabolic Activation: RAT, LIVER, S-9, ACETONITRILE (AUTOINDUCTION), Method: PREINCUBATION) “inactive; negative”; (Test System: AMES SALMONELLA TYPHIMURIUM, Strain/Indicator: TA100, Metabolic Activation: RAT, LIVER, S-9, AROCLOR 1254 (10 OR 30%), Method: PREINCUBATION) “inactive; negative”; (Test System: AMES SALMONELLA TYPHIMURIUM, Strain/Indicator: TA100, Metabolic Activation: RAT, LIVER, S-9, PHENOBARBITONE, Method: PREINCUBATION) “inactive; negative”. The mutagenic call is “inactive; negative” (Test System: AMES SALMONELLA TYPHIMURIUM, Strain/Indicator: TA1535, Metabolic Activation: HAMSTER, LIVER, S-9, AROCLOR 1254 (10 OR 30%), Method: PREINCUBATION); “inactive; negative” under setting [3]; “inactive; negative” (Test System: AMES SALMONELLA TYPHIMURIUM, Strain/Indicator: TA1535, Metabolic Activation: RAT, LIVER, S-9, AROCLOR 1254 (10 OR 30%), Method: PREINCUBATION); “inactive; negative” (Test System: AMES SALMONELLA TYPHIMURIUM, Strain/Indicator: TA1537, Metabolic Activation: HAMSTER, S-9, AROCLOR 1254 (10 OR 30%), Method: PREINCUBATION); “inactive; negative” under setting [4]; “inactive; negative” (Test System: AMES SALMONELLA TYPHIMURIUM, Strain/Indicator: TA1537, Metabolic Activation: RAT, LIVER, S-9, AROCLOR 1254 (10 OR 30%), Method: PREINCUBATION).
As to `CCCOS(=O)(=O)OCCC`, the mutagenic call (End Point: In vitro micronucleus, Test System: Chinese Hamster Ovary (CHO-WBL) cells, Metabolic Activation: None) is “active; positive (p<0.01)”.
Turning to `CC(=O)OCCN(CCOC(C)=O)c1ccc([N+](=O)[O-])c2c(NCCCN(C)C)c3ccccc3nc12`, the mutagenic call (Test System: AMES SALMONELLA TYPHIMURIUM, Strain/Indicator: TA98, Metabolic Activation: NONE, Method: STANDARD PLATE) was “active; positive” and the mutagenic call (Test System: AMES SALMONELLA TYPHIMURIUM, Strain/Indicator: TA100, Metabolic Activation: NONE, Method: STANDARD PLATE) was “active; positive”.
In the case of `CC(C)(Cl)OC(C)(C)Cl`, the mutagenic call (Test System: AMES SALMONELLA TYPHIMURIUM, Strain/Indicator: TA100, Metabolic Activation: RAT, LIVER, S-9, AROCLOR 1254, Method: DESICCATOR) was “active; positive”.
